ChEMBL document CHEMBL1138933 (J Med Chem, 2006)
The source made the active and inactive calls. The calls are words filed in the database; no cut-off is given here.

What was measured:
[1] = biological target: T1, Adrenergic receptor alpha-1 (Rattus norvegicus, UniProt P15823+P23944+P43140); experiment: Displacement of [3H]prazosin from alpha-1 adrenergic receptor in Sprague-Dawley rat cortical membranes; format: cell membranes, Membrane
T1 sequence (P15823 whole entry): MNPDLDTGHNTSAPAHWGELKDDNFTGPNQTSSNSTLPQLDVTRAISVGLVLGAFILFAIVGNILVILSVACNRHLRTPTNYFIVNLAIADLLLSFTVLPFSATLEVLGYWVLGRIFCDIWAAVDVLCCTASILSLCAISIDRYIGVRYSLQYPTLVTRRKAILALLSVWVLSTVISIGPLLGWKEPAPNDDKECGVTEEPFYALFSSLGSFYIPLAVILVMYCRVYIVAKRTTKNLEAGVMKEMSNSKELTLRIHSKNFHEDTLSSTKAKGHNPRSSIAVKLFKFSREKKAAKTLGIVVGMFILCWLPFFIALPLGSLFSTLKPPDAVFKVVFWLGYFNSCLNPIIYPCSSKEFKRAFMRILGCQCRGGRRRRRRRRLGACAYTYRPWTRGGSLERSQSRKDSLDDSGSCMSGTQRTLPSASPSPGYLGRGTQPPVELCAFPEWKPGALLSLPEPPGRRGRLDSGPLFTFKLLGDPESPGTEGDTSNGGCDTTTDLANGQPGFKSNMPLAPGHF
T1 sequence (P23944 whole entry): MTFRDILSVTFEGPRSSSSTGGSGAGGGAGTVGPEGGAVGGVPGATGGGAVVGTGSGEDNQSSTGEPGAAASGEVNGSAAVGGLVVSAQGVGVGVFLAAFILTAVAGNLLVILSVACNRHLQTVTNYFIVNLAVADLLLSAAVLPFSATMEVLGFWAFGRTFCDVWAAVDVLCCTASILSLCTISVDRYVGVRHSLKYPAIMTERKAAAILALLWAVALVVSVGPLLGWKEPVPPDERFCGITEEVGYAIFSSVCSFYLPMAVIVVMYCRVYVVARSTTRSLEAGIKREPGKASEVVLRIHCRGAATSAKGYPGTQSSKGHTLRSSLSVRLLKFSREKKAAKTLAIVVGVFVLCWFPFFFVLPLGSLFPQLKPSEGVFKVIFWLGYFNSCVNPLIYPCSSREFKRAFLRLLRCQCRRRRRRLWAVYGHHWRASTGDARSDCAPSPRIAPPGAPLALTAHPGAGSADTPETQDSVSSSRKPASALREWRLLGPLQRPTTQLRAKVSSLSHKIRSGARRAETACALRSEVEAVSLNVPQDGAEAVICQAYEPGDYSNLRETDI
T1 sequence (P43140 whole entry): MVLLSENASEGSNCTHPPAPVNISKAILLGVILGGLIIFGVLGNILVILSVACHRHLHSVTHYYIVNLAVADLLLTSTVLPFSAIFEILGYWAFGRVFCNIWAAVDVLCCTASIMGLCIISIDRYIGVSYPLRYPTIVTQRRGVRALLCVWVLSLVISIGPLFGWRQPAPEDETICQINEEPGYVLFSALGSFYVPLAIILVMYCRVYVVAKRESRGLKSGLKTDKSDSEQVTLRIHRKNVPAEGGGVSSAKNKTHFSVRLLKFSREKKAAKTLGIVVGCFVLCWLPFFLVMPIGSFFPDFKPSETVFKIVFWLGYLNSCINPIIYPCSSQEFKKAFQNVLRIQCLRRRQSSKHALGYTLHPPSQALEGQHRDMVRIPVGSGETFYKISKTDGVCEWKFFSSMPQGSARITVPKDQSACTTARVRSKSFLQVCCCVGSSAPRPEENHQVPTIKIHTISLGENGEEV

[2] = biological target: Sodium-dependent serotonin transporter (Homo sapiens, UniProt P31645); format: cell-based, JAR
Sequence of Sodium-dependent serotonin transporter (Homo sapiens, UniProt P31645) (P31645 whole entry): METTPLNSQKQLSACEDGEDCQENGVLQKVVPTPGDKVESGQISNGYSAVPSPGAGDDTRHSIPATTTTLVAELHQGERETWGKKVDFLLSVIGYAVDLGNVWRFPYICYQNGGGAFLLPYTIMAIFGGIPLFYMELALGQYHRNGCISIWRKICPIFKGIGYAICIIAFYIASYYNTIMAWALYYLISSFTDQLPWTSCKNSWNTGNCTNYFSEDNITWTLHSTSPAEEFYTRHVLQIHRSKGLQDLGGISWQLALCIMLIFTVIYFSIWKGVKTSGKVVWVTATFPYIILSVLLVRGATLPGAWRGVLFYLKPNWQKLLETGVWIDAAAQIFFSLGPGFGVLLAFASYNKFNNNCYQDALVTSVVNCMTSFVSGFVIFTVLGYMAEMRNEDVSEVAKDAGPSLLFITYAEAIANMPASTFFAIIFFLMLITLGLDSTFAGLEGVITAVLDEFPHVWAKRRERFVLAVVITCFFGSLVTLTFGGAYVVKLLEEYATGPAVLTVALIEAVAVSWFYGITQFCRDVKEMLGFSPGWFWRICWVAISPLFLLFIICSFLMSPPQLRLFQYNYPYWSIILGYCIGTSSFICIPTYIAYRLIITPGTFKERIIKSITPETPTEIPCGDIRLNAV
Description: Inhibition of [3H]5-HT uptake at human 5-HT transporter expressed in Jar cells

[3] = biological target: Sodium-dependent serotonin transporter (Rattus norvegicus, UniProt P31652)
Sequence of Sodium-dependent serotonin transporter (Rattus norvegicus, UniProt P31652) (P31652 whole entry): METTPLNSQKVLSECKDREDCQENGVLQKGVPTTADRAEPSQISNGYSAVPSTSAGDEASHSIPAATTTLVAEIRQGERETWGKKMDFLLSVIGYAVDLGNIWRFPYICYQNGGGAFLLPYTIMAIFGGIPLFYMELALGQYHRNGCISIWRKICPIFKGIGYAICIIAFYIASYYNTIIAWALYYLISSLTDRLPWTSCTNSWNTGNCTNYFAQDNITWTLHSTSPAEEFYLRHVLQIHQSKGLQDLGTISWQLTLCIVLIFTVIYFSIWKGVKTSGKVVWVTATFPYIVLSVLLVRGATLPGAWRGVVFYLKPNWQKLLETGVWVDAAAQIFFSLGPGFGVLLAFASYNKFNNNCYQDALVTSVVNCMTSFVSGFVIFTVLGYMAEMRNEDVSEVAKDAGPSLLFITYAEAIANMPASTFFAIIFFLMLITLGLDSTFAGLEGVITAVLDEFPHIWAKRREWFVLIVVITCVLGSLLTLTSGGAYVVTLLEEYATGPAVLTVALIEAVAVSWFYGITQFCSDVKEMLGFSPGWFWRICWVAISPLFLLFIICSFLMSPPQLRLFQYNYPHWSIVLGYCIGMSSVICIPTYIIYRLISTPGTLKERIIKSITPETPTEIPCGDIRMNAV
Description: Displacement of [3H]paroxetine from 5-HT transporter in Sprague-Dawley rat cortical membranes

[4] = biological target: T2, 5-hydroxytryptamine receptor 1A (Homo sapiens) (UniProt P08908); experiment: Agonist activity at human 5HT1A receptor expressed in CHO cells by inhibition of […] forskolin-stimulated cAMP production relative to 5-HT; format: functional, cell-based
T2 sequence (whole entry): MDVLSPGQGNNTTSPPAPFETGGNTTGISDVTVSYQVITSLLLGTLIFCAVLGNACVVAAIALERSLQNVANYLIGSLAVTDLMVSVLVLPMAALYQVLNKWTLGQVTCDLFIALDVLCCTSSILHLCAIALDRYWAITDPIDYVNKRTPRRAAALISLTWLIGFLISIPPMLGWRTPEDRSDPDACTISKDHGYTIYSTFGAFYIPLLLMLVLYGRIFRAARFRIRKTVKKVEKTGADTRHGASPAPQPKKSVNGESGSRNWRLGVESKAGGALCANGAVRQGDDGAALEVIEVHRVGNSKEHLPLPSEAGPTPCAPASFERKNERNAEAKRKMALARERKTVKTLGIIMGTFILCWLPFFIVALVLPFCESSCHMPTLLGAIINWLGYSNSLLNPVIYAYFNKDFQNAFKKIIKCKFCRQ

[5] = biological target: Adrenergic receptor alpha-1 (Rattus norvegicus) (UniProt P15823+P23944+P43140); experiment: Displacement of [3H]prazosin from alpha-1 adrenergic receptor in Sprague-Dawley rat cortical membranes at 1 uM; format: cell membranes; conditions: Membrane
[6] = biological target: T3, 5-hydroxytryptamine receptor 1A (Homo sapiens, UniProt P08908); experiment: biochemical
T3 sequence (P08908 whole entry): T2 sequence (whole entry)
Description: Displacement of [3H]-8-OH-DPAT from human 5HT1A receptor expressed in CHO cells

[7] = biological target: T3, 5-hydroxytryptamine receptor 1A
Rattus norvegicus = experiment: Increase of 5-HT levels in Sprague-Dawley rat frontal cortex at 30 mg/kg, po relative to control by microdialysis assay; format: functional, organism-based; parameters: dose 30 mg/kg

| Compound | Ki [1] [nM] | IC50 [2] [nM] | Ki [3] [nM] | Emax [4] [%] | inhibition [5] [%] | Ki [6] [nM] | IC50 [7] [nM] | Activity (Rattus norvegicus) |
| --- | --- | --- | --- | --- | --- | --- | --- | --- |
| NC(=O)c1ccc(F)c2c1C[C@@H](N(CCCc1c[nH]c3ccc(F)cc13)CC1CC1)CO2 | 2023 | 59.7 | 3.9 | – | – | – | – | – |
| CCCN(CCCc1c[nH]c2ccc(F)cc12)C1COc2cccc(OC)c2C1 (racemic) | 820 | 386 | – | 80 | – | – | – | – |
| COc1cccc2c1CC(N(CCCc1c[nH]c3ccc(F)cc13)C1CCC1)CO2 (racemic) | – | 400 | – | 37 | 15 | – | – | – |
| CCN(CCc1c[nH]c2ccc(F)cc12)C1COc2c(F)ccc(C(N)=O)c2C1 (racemic) | 416 | 883 | 60.2 | – | – | 33.2 | – | – |
| NC(=O)c1ccc(F)c2c1CC(N(CCCc1c[nH]c3ccc(F)cc13)CC1CC1)CO2 (racemic) | – | 53.5 | 3.5 | – | 32 | – | – | – |
| CCCN(CCCCc1c[nH]c2ccc(F)cc12)C1COc2c(F)ccc(C(N)=O)c2C1 (racemic) | 494 | 217 | 12.2 | – | – | 4.4 | – | – |
| CCCN(CCCc1c[nH]c2ccc(F)cc12)[C@@H]1COc2c(F)ccc(C(N)=O)c2C1 | – | 59.9 | 4.7 | 97 | 46 | 3.2 | – | – |
| CN(CCCc1c[nH]c2ccc(F)cc12)[C@H]1COc2c(F)ccc(C(N)=O)c2C1 | – | 116 | 14.8 | – | 37 | 266 | – | – |
| NC(=O)c1ccc(F)c2c1CC(N(CCCCc1c[nH]c3ccc(F)cc13)C1CCC1)CO2 (racemic) | 645 | 300 | 10.4 | – | – | – | 24 | – |
| CCCN(CCCc1c[nH]c2ccc(F)cc12)[C@H]1COc2c(F)ccc(C(N)=O)c2C1 | 1150 | 181 | 8 | 78 | – | 1.5 | – | – |
| CCN(CCCc1c[nH]c2ccc(F)cc12)[C@H]1COc2c(F)ccc(C(N)=O)c2C1 | 640 | 42.7 | 3.4 | – | – | 34.9 | 135 | – |
| CCN(CCCc1c[nH]c2ccc(F)cc12)[C@@H]1COc2c(F)ccc(C(N)=O)c2C1 | 545 | 37.3 | 3.6 | 91 | – | 18.6 | – | – |
| CCN(CCCc1c[nH]c2ccc(F)cc12)C1COc2cccc(OC)c2C1 (racemic) | 207 | 64 | – | 96 | – | 2.3 | – | – |
| NC(=O)c1ccc(F)c2c1CC(N(CCCCc1c[nH]c3ccc(F)cc13)CC1CC1)CO2 (racemic) | 506 | 82.4 | 3.3 | – | – | 2.1 | – | – |
| NC(=O)c1ccc(F)c2c1C[C@H](N(CCCc1c[nH]c3ccc(F)cc13)CC1CC1)CO2 | – | 36.3 | 4.2 | 69 | 26 | – | – | – |
| NC(=O)c1ccc(F)c2c1CC(N(CCc1c[nH]c3ccc(F)cc13)CC1CC1)CO2 (racemic) | 636 | > 1000 | 97.8 | – | – | 7.3 | – | – |
| NC(=O)c1ccc(F)c2c1C[C@@H](NCCCc1c[nH]c3ccc(F)cc13)CO2 | – | 197 | 20.4 | 85 | 21 | 45.2 | – | – |
| COc1cccc2c1CC(N(CCCc1c[nH]c3ccc(F)cc13)CC1CC1)CO2 (racemic) | – | 42.6 | – | 91 | 44 | – | – | – |
| NC(=O)c1ccc(F)c2c1C[C@H](N(CCCc1c[nH]c3ccc(F)cc13)C1CCC1)CO2 | – | 17.4 | 5.3 | – | – | – | – | – |
| NC(=O)c1ccc(F)c2c1C[C@@H](N(CCCc1c[nH]c3ccc(F)cc13)C1CCC1)CO2 | – | 18.7 | 1.5 | – | 21 | – | – | Active |
| NC(=O)c1ccc(F)c2c1CC(N(CCCc1c[nH]c3ccc(F)cc13)C1CCC1)CO2 (racemic) | – | 25.2 | 3 | – | 16 | – | – | – |
| CCN(CCCCc1c[nH]c2ccc(F)cc12)C1COc2c(F)ccc(C(N)=O)c2C1 (racemic) | 328 | 24.1 | 0.4 | – | – | 330 | > 1000 | – |
| COc1cccc2c1CC(N(C)CCCc1c[nH]c3ccc(F)cc13)CO2 (racemic) | 610 | 15 | – | 91 | – | – | – | – |
| CCCN(CCc1c[nH]c2ccc(F)cc12)C1COc2c(F)ccc(C(N)=O)c2C1 (racemic) | 484 | > 1000 | 88 | – | – | 17.6 | – | – |
| COc1cccc2c1C[C@@H](N(CCCc1c[nH]c3ccc(F)cc13)C1CCC1)CO2 | – | 732 | – | – | 15 | – | 23 | – |
| CCCN(CCCc1c[nH]c2ccc(F)cc12)C1COc2c(F)ccc(C(N)=O)c2C1 (racemic) | – | 128 | 7.1 | 84 | – | 3.5 | – | – |
